Test results as given in US5369096A, “Glycolipid derivatives” (The Nisshin Oil Mills, Ltd., priority 1992, dated 1994).

What was measured:
Type in all cases: cell-based
[1] = tested on: Colo 201 cancer cells adhering to vascular endothelial cells of the normal human umbilical cord; assay: inhibition of adhesion of Colo 201 cancer cells to rhIL1β-stimulated vascular endothelial cells, liposome dispersion; conditions: 11.8 μM equivalent; for Amount of Colo 201 cells adhered (fluorescence intensity): rhIL1β 200 U/ml, 485 nm
Experimental: A solution of 200 μg of phosphatidylcholine, 100 μg of cholesterol, 7.5 μg of dicetyl phosphate and 50 μg of a compound of the invention in a mixture of chloroform/methanol=2/1 (ca. 1 ml) was evaporated under reduced pressure to dryness followed by addition of 0.25 ml of a phosphate-buffered saline solution. The mixture was ultrasonicated (an output of 90 watts) for 5 min. and stirred (a vortex mixer) for 5 min. to form a liposome dispersion.
(§1) % Inhibition of adhesion=100-[(fluorescence intensity for rhIL1β-treated group+compound-free or a compound-containing liposome dispersion-treated group)-(fluorescence intensity for rhIL1β-untreated group)/(fluorescence intensity for rhIL1β-treated group-fluorescence intensity for rhIL1β-untreatedgroup)]×100
Vascular endothelial cells of the normal human umbilical cord grown to confluence were stimulated in 24-well plates with 200 U/ml of rhIL1β at 37° C. for 4 hours. After removal of the supernatant by suction liposome dispersions each prepared from 2→3 sialyl Le^x or a compound of the invention in an amount of 11.8 μM equivalent were added except for the rhIL1β-untreated and treated groups. The mixtures were then allowed to react at room temperature for 30 min. Subsequently, colon carcinoma cell line Colo 201 with 2',7'-bis-(carboxyethyl)-5,6-carboxyfluorescene acetoxymethyl ester fluorescent dye enclosed was added at a level of 1×10^6 cells per well followed by centrifugal operation at 100 rpm for 20 min. Each well was washed three times followed by addition of 0.5 ml of 0.5% Triton X-100 and stirring. The contents were divided into 100 μl portions in 96-well plates and measurement was made on a Baxter fluorometer at 485 nm.
4: rhIL1β-treated group+2→3 sialyl Le^x -containing liposome dispersion-treated group
5: rhIL1β-treated group+compound 5E-containing liposome dispersion-treated group (OEG)*
6: rhIL1β-treated group+compound 5A-containing liposome dispersion-treated group (2EG)
7: rhIL1β-treated group+compound 5B-containing liposome dispersion-treated group (3EG)
8: rhIL1β-treated group+compound 5C-containing liposome dispersion-treated group (4EG)
9: rhIL1β-treated group+compound 5D-containing liposome dispersion-treated group (5EG)
* OEG represents a control compound containing no CH2 CH2 O unit. The same shall apply hereinafter.
Amount adhered and % inhibition of adhesion of Colo 201 cancer cells as measured from fluorescence intensity are shown in Table 2 below.

[2] = tested on: HL-60 cancer cells adhering to vascular endothelial cells of the normal human umbilical cord; assay: inhibition of adhesion of HL-60 cancer cells to rhIL1β-stimulated vascular endothelial cells, oily emulsion; conditions: 20 μg/ml equivalent; for Amount of HL-60 cancer cells adhered (fluorescence intensity): rhIL1β 200 U/ml, 485 nm/535 nm
Experimental: (§2) A mixed solution of 6 mg of egg yolk lecithin (manufactured by Nacalaitesque Inc.), 30 μl of soybean oil J. P. (manufactured by Yoshida Seiyaku), 470 μl of distilled water for injection (manufacturedby Otsuka Seiyaku) and 125 μg of a compound of the invention was ultrasonicated (an output of 90 watts) for 10 min. to prepare an oily emulsion. The oily emulsion was further passed through a polycarbonate membrane filter having 0.2 μm average pore diameter (manufactured by Millipore) to provide an average particle size of 0.2 μm.
Vascular endothelial cells of the normal human umbilical cord grown to confluence were stimulated in 24-well plates with 200 U/ml of rhIL1β at 37° C. for 4 hours. After removal of the supernatant by suction, oily emulsions each prepared from a compound of the invention in an amount of 20 μg/ml equivalent were added except for the rhIL1β-untreated group (sample 1) and the treated groups (samples 2 and 3). The mixtures were then allowed to react at room temperature for 30 min. Subsequently, promyelocytic leukemia cell line HL-60 with 2',7'-bis(carboxyethyl)-5,6-carboxyfluorescene acetoxymethyl ester fluorescent dye enclosed was added at a level of 1×10^6 cells per well followed by centrifugal operation at 100 rpm for 20 min. Each well was washed three times followed by addition of 0.5 ml of 0.5% Triton X-100 and stirring. The contents were divided into 100 μl portions in 96-well plates and measurement was made on a Baxter fluorometer at 485 nm/535 nm.
4: rhIL1β-treated group+2→3 sialyl Lewis X (natural type)-containing oily emulsion dispersion-treated group
5: rhlL1β-treated group+compound 5E-containing oily emulsion dispersion-treated group (OEG)
(§3) 6: rhIL1β-treated group+compound 5A-containing oily emulsion dispersion-treated group (2EG)
(§4) 7: rhIL1β-treated group+compound 5B-containing oily emulsion dispersion-treated group (3EG)
(§5) 8: rhIL1β-treated group+compound 5C-containing oily emulsion dispersion-treated group (4EG)
(§6) 9: rhIL1β-treated group+compound 5D-containing oily emulsion dispersion-treated group (5EG)
as §1, with “inhibition” for “Inhibition”, “oily emulsion” for “liposome”

[3] = tested on: human normal lymphocytes adhering to vascular endothelial cells of the normal human umbilical cord; assay: inhibition of adhesion of human normal lymphocytes to rhIL1β-stimulated vascular endothelial cells, oily emulsion; conditions: 20 μg/ml equivalent; for Amount adhered (fluorescence intensity): rhIL1β 200 U/ml, 485 nm/535 nm
Experimental: as §2
Vascular endothelial cells of the normal human umbilical cord grown to confluence were stimulated in 24-well plates with 200 U/ml of rhIL1ββat 37° C. for 4 hours. After removal of the supernatant by suction, oily emulsions each prepared from a compound of the invention in an amount of 20 μg/ml equivalent were added except for the rhIL1β-untreated (Sample 1) and treated groups (Samples 2 and 3). The mixtures were then allowed to react at room temperature for 30 min. Subsequently, human normal lymphocytes with 2',7'-bis(carboxyethyl)-5,6-carboxyfluorescence acetoxymethyl ester fluorescent dye enclosed was added at a level of 2×10^6 cells per well followed by centrifugal operation at 100 rpm for 20 min. Each well was washed three times followed by addition of 0.5 ml of 0.5% Triton X-100 and stirring. The contents were divided into 100 μl portions in 96-well plates and measurement was made on a Baxter fluorometer at 485 nm/535 nm.
4: rhIL1β-treated group+2→3 sialyl Lewis X-containing oily emulsion dispersion-treated group
5: rhIL1β-treated group+compound 5E-containing oily emulsion dispersion-treated group (OEG)
as §3, §4, §5, §6
Amount adhered and percent inhibition of adhesion of human normal lymphocytes as measured from fluorescence intensity are shown in Table 5 below.

SMILES	Amount of Colo 201 cells adhered (fluorescence intensity) [1]	Amount of HL-60 cancer cells adhered (fluorescence intensity) [2]	Amount adhered (fluorescence intensity) [3]	% Inhibition of adhesion ([1]; Colo 201 cells)	% Inhibition of adhesion ([2]; HL-60 cells)	% Inhibition of adhesion [3]
CCCCCCCCCCCCC/C=C/[C@@H](O)[C@H](CO[C@@H]1O[C@H](CO)[C@@H](O[C@@H]2O[C@H](CO)[C@H](O)[C@H](O[C@@H]3O[C@H](CO)[C@@H](O[C@@H]4O[C@H](CO)[C@H](O)[C@H](O[C@]5(C(=O)O)C[C@H](O)[C@@H](NC(C)=O)[C@H]([C@H](O)[C@H](O)CO)O5)[C@H]4O)[C@H](O[C@@H]4O[C@@H](C)[C@@H](O)[C@@H](O)[C@@H]4O)[C@H]3NC(C)=O)[C@H]2O)[C@H](O)[C@H]1O)NC(=O)CCCCCCCCCCCCCCCCC [2→3 sialyl Le^x, reference compound]	448512	16869	9320			
CCCCCCCCCCCCCCC(CCCCCCCCCCCCCC)C(=O)Nc1ccc(CO[C@@H]2O[C@H](CO)[C@@H](O[C@@H]3O[C@H](CO)[C@H](O)[C@H](O[C@]4(C(=O)O)C[C@H](O)[C@@H](NC(C)=O)[C@H]([C@H](O)[C@H](O)CO)O4)[C@H]3O)[C@H](O[C@@H]3O[C@@H](C)[C@@H](O)[C@@H](O)[C@@H]3O)[C@H]2O)cc1 [Compound 5E, para-(2-tetradecylhexadecanoyl)-aminobenzyl-O-(5-acetamido-3,5-dideoxy-D-glycero-α-D-galacto-2-nonulopyranosylonic acid)-(2→3)-O-β-galactopyranosyl-(1→4)-[O-α-L-fucopyranosyl-(1→3)-β-D-glucopyranoside], reference compound]	595253	24307	14781	9.68%	35.6%	46.6%
